For eleven molecules, TGI results are on record in PubChem BioAssay (NCI).

Among the test systems are HOP-62 NSCLC; ACHN renal; UO-31 renal; COLO 205 colon; HCC-2998 colon; A549 NSCLC; EKVX NSCLC; SNB-75 CNS; SK-MEL-2 melanoma; HS 578T breast.
Common to all, as to assay: NCI anticancer screen, dose series, 48 h

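Compound exposure: 48 hours, 5 concentrations, 96-well plates. At the TGI there is no net growth.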

In the case of `CN(c1ccccc1Cl)S(=O)(=O)c1ccc([N+](=O)[O-])cc1`, the TGI in the assay with HOP-62 NSCLC, in the assay with ACHN renal, with UO-31 renal, with COLO 205 colon, with HCC-2998 colon and in the assay with A549 NSCLC was more than 100 µM throughout. The TGI in the assay on EKVX NSCLC, in the assay on SNB-75 CNS, in the assay on SK-MEL-2 melanoma and in the assay with HS 578T breast was more than 100 µM throughout.

Turning to `Cc1cn([C@@H]2O[C@H](CO[Si](C)(C)C(C)(C)C)[C@]3(O[C@H]3C(=O)NN)[C@H]2O[Si](C)(C)C(C)(C)C)c(=O)[nH]c1=O`, the TGI in the assay with HOP-62 NSCLC is 33.3 µM; in the assay on ACHN renal, 15.6 µM; with UO-31 renal it was 27.7 µM; with COLO 205 colon, 6.74 µM; in the assay on HCC-2998 colon it was 7.78 µM; with A549 NSCLC, 16.6 µM. Moreover, the TGI in the assay on EKVX NSCLC is 22.4 µM; with SNB-75 CNS, 22.9 µM; in the assay on SK-MEL-2 melanoma, 17.4 µM; with HS 578T breast, 6.93 µM.

Turning to `CC1=C(C(=O)c2ccccc2)C23C(=O)N(c4ccccc4)C(=O)C2=C(O)C=CC3(O)N1` (stereo not given), the TGI in the assay on HOP-62 NSCLC is more than 100 µM; in the assay with ACHN renal, 40.4 µM; with UO-31 renal it was 37.8 µM; with COLO 205 colon it was more than 100 µM; in the assay with HCC-2998 colon it was 56.4 µM; in the assay on A549 NSCLC, more than 100 µM. Moreover, the TGI with EKVX NSCLC is more than 100 µM; in the assay with SNB-75 CNS it was 77.5 µM; in the assay with SK-MEL-2 melanoma it was 57.3 µM; in the assay on HS 578T breast, more than 100 µM.

Take `O=[N+]([O-])c1ccc(C=NCC2CCCN3CCCCC23)cc1` (stereo not given): the TGI with HOP-62 NSCLC, with ACHN renal, with UO-31 renal, with COLO 205 colon, with HCC-2998 colon and in the assay on A549 NSCLC was more than 100 µM throughout. For the same molecule, the TGI in the assay on EKVX NSCLC, in the assay with SNB-75 CNS, in the assay on SK-MEL-2 melanoma and in the assay on HS 578T breast was more than 100 µM in each case.

As to `O=C1OC(=O)c2cc(S(=O)(=O)c3ccc4c(c3)C(=O)OC4=O)ccc21`, the TGI in the assay with HOP-62 NSCLC, with ACHN renal, in the assay on UO-31 renal, with COLO 205 colon, in the assay on HCC-2998 colon and with A549 NSCLC was more than 100 µM each time. Further, the TGI in the assay on EKVX NSCLC, in the assay with SNB-75 CNS, in the assay on SK-MEL-2 melanoma and with HS 578T breast was more than 100 µM in each case.

With `C=C1C(=O)O[C@@H]2C[C@]3(C)CC[C@]4(C)[C@H](CC[C@@H]5[C@@]6(C)CCC(=O)C(C)(C)[C@@H]6CC[C@]54C)[C@H]3[C@H]12`, the TGI in the assay on HOP-62 NSCLC was found to be 49.2 µM; in the assay on ACHN renal it was 24.2 µM; in the assay on UO-31 renal it was 28.3 µM; in the assay with COLO 205 colon, 21.6 µM; with HCC-2998 colon, 33.7 µM; in the assay with A549 NSCLC, 46.9 µM. In addition, the TGI with EKVX NSCLC is 38 µM; in the assay with SNB-75 CNS, 43.9 µM; with SK-MEL-2 melanoma it was 47.7 µM; with HS 578T breast, more than 78 µM.

For `CCOP(=O)(OCC)C(C#N)Cc1ccco1` (stereo not given), the TGI with HOP-62 NSCLC, in the assay with ACHN renal, in the assay with UO-31 renal, with COLO 205 colon, in the assay on HCC-2998 colon and in the assay on A549 NSCLC was more than 10 µM each time. The TGI in the assay on EKVX NSCLC, in the assay with SNB-75 CNS, with SK-MEL-2 melanoma and in the assay with HS 578T breast was more than 10 µM each time.

Consider `O=C(O)Cc1ccc2[nH]c(O)c(C3=Nc4ccccc4C3=O)c2c1`, for which the TGI is more than 100 µM in the assay on HOP-62 NSCLC; more than 100 µM in the assay with ACHN renal; more than 100 µM in the assay on UO-31 renal; 92.1 µM with COLO 205 colon; more than 100 µM in the assay with HCC-2998 colon; more than 100 µM in the assay with A549 NSCLC. Moreover, the TGI is more than 100 µM in the assay with EKVX NSCLC, more than 100 µM in the assay on SNB-75 CNS, more than 100 µM in the assay with SK-MEL-2 melanoma and 77.5 µM in the assay with HS 578T breast.

As to `C/C=C/C1OC(O)(C(C)C(O)[C@H](C)C2OC(=O)/C(OC)=C/C(C)=C/[C@@H](C)[C@@H](O)[C@@H](C)C(O)C(C)C/C(C)=C/C=C/C2OC)C[C@@H](OC2CC(O)C(OC(N)=O)C(C)O2)C1C` (stereo not given in full), the TGI in the assay on HOP-62 NSCLC was less than 0.01 µM; in the assay with ACHN renal, 12.1 µM; in the assay on UO-31 renal, 13.8 µM; in the assay with COLO 205 colon it was 1.27 µM; in the assay on HCC-2998 colon, less than 0.01 µM; in the assay with A549 NSCLC, 13.3 µM. For the same molecule, the TGI in the assay on EKVX NSCLC was 8.37 µM; in the assay on SNB-75 CNS it was 2.12 µM; in the assay on SK-MEL-2 melanoma, less than 0.01 µM; in the assay on HS 578T breast it was 27.1 µM.

In the case of `CC(=O)OCC1OC(Oc2cc(C)c(O)cc2C/C=C(\C)CC/C=C(\C)CC(=O)CC(C)C)C(O)C(OC(C)=O)C1OC(C)=O` (stereo not given), the TGI in the assay on HOP-62 NSCLC came to 40 µM; in the assay on ACHN renal, 44.9 µM; in the assay on UO-31 renal it was 32 µM; with COLO 205 colon, 17.3 µM; with HCC-2998 colon, 24.5 µM; with A549 NSCLC, 20.3 µM. The TGI is 16.3 µM in the assay with EKVX NSCLC, more than 50 µM with SNB-75 CNS, 26.6 µM in the assay on SK-MEL-2 melanoma and 35.2 µM in the assay with HS 578T breast.

For the molecule `CC1(C)C2CC(=O)C1(C)C(OCc1ccccc1)C2` (stereo not given), the TGI in the assay on HOP-62 NSCLC was more than 100 µM; with ACHN renal, more than 100 µM; in the assay with UO-31 renal, more than 100 µM; with COLO 205 colon it was 90.6 µM; with HCC-2998 colon, more than 100 µM; in the assay on A549 NSCLC it was more than 100 µM. The TGI in the assay with EKVX NSCLC was more than 100 µM; with SNB-75 CNS it was more than 100 µM; with SK-MEL-2 melanoma it was more than 100 µM; in the assay with HS 578T breast, 77 µM.
